What was measured:
ERRγ = assay type: cell-based; conditions: for Functional Assay at 10 μM (% of control), Cpds: 24 hours, AD293; for Functional Assay, Cpds/Ref 5182: activity relative to reference compound GSK5182, 10 μM
[1] = 1 μM, 30 minutes, 37° C., NADPH
[2] = 1 μM, 30 minutes, 37° C., NADPH; remark: listed apart in the source
Protocol: 2) Microsomal Stability Evaluation
Four liver microsomes (Human, Dog, Rat, Mouse 0.5 mg/ml) with a 0.1 M phosphate buffer solution (pH 7.4), and the arylethene derivative of the present invention were added to a concentration of 1 μM, culturing was performed at 37° C. for 5 minutes in advance, a NADPH regeneration system solution was added thereto, and culturing was performed at 37° C. for 30 minutes. Thereafter, in order to complete the reaction, an acetonitrile solution containing an internal standard material (chlorpropamide) was added thereto, centrifugation (14,000 rpm, 4° C.) was performed for 5 minutes, and a supernatant was injected into a LC-MS/MS system to analyze the substrate drug, thereby evaluating metabolism stability to the arylethene derivative of the present invention.

in vitro = in vitro ADME; parameters: Papp at 5 h: dose or concentration left out as unconfirmed; conditions: PBS pH 7.4, 25° C.; for Papp at 5 h: PAMPA, read-out: Permeability Pampa
Protocol: 3) Parallel Artificial Membrane Permeability Assay (PAMPA) Evaluation
PAMPA is a method which has been developed for testing cell membrane permeability of a material in a test tube, and has been performed using a lipid tri-layer PVDF membrane available from Corning Gentest (NY, US), the used reagents were all purchased from Sigma (MO, US). First, a test material is diluted in PBS (pH 7.4) to a final concentration of 10 mM, 300 mL of the solution is added to the bottom well of a 96-transwell equipped with a PVDF membrane, and 200 mL of PBS is added to the upper well. Then, a plate is reacted at 25° C. for 5 hours, 20 mL of the solution in each well is transferred to a new container, and 80 mL of acetonitrile containing an internal standard material (4 mM chloropropamide) is added thereto. A concentration of the material in the solution is analyzed using LC-MS/MS (ThermoFisher Scientific, MO, US), and the transmittance of the material is calculated according to the equation reported in the reference document.

CYP2C19 = CYP2C19 (Homo sapiens (Human), UniProt P33261); experiment: Cytochrome P450 activity inhibition, CYP2C19; assay type: in vitro ADME; conditions: 10 μM, human liver microsomes, S-mephenytoin substrate
Excerpt: (§1) 1) Cytochrome P450 (CYP450) Activity Inhibition Evaluation

CYP1A2 = CYP1A2 (Homo sapiens (Human), UniProt P05177); experiment: Cytochrome P450 activity inhibition, CYP1A2; assay type: in vitro ADME; conditions: 10 μM, human liver microsomes, Phenacetin substrate
Excerpt: as §1

CYP2C9 = CYP2C9 (Homo sapiens (Human), UniProt P11712); experiment: Cytochrome P450 activity inhibition, CYP2C9; assay type: in vitro ADME; conditions: 10 μM, human liver microsomes, Diclofenac substrate
Excerpt: as §1

CYP2D6 = CYP2D6 (Homo sapiens (Human), UniProt P10635); experiment: Cytochrome P450 activity inhibition, CYP2D6; assay type: in vitro ADME; conditions: 10 μM, human liver microsomes, Dextromethorphan substrate
Excerpt: as §1

in vivo = assay type: in vivo; conditions: rat, IV, 1 mg/kg

Chain of CYP2D6 (P10635 whole entry): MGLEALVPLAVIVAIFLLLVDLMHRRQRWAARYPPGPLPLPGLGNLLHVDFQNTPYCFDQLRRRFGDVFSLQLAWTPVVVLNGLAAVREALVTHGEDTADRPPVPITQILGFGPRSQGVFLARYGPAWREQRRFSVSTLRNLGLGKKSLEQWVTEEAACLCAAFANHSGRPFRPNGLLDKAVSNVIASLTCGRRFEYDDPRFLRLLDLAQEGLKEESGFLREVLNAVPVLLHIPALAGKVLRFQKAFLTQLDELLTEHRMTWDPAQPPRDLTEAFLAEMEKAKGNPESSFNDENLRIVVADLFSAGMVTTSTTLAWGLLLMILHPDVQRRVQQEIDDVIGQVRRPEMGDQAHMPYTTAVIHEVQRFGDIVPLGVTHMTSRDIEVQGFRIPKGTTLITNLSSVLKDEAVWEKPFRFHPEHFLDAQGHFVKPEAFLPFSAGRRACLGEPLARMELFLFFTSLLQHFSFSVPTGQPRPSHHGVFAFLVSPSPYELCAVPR
Chain of CYP2C9 (P11712 whole entry): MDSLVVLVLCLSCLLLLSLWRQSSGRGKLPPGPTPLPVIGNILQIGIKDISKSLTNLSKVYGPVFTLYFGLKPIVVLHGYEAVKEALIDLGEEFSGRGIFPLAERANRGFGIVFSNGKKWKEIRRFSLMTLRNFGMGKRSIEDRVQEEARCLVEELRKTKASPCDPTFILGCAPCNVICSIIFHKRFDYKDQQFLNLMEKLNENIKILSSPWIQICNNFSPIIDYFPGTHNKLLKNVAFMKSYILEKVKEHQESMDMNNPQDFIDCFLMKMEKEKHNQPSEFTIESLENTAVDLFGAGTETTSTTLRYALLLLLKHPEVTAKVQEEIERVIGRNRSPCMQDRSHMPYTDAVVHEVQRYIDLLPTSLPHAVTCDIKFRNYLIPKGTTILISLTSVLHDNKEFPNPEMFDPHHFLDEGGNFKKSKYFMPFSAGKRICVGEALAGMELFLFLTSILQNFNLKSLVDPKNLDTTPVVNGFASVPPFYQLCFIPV
Chain of CYP1A2 (P05177 whole entry): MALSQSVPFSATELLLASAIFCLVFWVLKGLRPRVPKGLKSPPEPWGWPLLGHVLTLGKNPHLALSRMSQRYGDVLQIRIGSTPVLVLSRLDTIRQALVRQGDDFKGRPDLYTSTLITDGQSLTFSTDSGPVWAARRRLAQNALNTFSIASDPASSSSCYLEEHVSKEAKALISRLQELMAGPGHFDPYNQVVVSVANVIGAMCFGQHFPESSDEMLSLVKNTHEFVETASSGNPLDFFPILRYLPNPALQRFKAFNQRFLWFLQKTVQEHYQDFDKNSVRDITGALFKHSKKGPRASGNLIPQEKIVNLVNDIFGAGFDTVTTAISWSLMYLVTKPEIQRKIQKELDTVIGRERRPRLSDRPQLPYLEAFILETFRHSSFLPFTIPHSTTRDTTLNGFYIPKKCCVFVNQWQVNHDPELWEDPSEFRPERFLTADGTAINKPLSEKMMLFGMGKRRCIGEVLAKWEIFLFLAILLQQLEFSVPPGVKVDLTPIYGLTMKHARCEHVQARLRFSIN
Chain of CYP2C19 (P33261 whole entry): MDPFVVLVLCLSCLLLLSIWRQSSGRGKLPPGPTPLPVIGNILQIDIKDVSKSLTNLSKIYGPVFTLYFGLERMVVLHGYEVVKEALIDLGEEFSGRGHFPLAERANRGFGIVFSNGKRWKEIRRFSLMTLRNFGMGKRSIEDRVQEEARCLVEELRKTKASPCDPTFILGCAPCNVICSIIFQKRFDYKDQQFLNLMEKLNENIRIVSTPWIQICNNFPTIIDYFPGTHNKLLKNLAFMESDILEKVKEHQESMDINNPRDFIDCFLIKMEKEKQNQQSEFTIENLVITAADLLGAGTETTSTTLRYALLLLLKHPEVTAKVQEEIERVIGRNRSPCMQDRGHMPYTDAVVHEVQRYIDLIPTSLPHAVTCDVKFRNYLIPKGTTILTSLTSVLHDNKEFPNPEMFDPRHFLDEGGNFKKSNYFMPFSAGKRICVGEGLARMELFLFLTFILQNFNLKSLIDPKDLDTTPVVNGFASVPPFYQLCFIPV

Compound	Functional Assay at 10 μM (% of control), Cpds (ERRγ)	Functional Assay, Cpds/Ref 5182 (ERRγ)	MS(Microsomal Stability) (%) human [1] [%]	MS(Microsomal Stability) (%) rat [2] [%]	further results
C[Si](C)(CC1CCNCC1)c1ccc(/C(=C(/CCCO)c2ccccc2)c2ccc(O)cc2)cc1 [Compound 42d]	11.7 % of control	3.99			
OCCC/C(=C(\c1ccc(O)cc1)c1ccc(OCCN2CCOCC2)cc1)c1ccccc1 [Compound 6c]	4.64 % of control	1.51	128.0	45.2	
CN1CCN(c2ccc(/C(=C(/CCCOC(=O)C(C)(C)C)c3ccccc3)c3ccc(OC(=O)C(C)(C)C)cc3)cc2)CC1 [Compound 28g]	5.1 % of control	1.25			
C[Si](C)(CN1CCCCC1)c1ccc(/C(=C(/CCCO)c2ccccc2)c2ccc(O)cc2)cc1 [Compound 42b]	11.6 % of control	1.16			Papp at 5 h (in vitro): 0.1 ×10⁻⁶ cm/s
OCCC/C(=C(\c1ccc(O)cc1)c1ccc(OCCN2C[C@H]3CNC[C@H]3C2)cc1)c1ccccc1 [Compound 40, 4-((Z)-1-(4-(2-((3 aR,6aS)-hexahydropyrrolo[3,4-c]pyrrol-2(1H)-yl)ethoxy)phenyl)-5-hydroxy-2-phenylpent-1-en-1-yl)phenol]	2.8 % of control	0.96	64.7	72.0	
CN1CCN(CCOc2ccc(/C(=C(/CCCO)c3ccccc3)c3ccc(O)cc3)cc2)CC1 [Compound 6b]	7.97 % of control	2.59			
C[Si](C)(CN1CCCC1)c1ccc(/C(=C(/CCCO)c2ccccc2)c2ccc(O)cc2)cc1 [Compound 42c]	2.6 % of control	0.89			
OCCC/C(=C(\c1ccc(Br)cc1)c1ccc(C2CNC2)cc1)c1ccccc1 [Compound 20f]			83.9	99.5	Permeability Pampa (in vitro; 5 hours): 0.14 10^−6 cm/s
CN(C)CCn1cc(-c2ccc(/C(=C(/CCCO)c3ccccc3)c3ccc(O)cc3)cc2)nn1 [Compound 18u]	5.33 % of control	5.61			
OCCC/C(=C(\c1ccc(O)cc1)c1ccc(NCCN2CCCCC2)cc1)c1ccccc1 [Compound 45, (E)-4-(5-hydroxy-2-phenyl-1-(4-((2-(piperidin-1-yl)ethyl)amino)phenyl)pent-1-en-1-yl)phenol]	1.58 % of control	1.55			
O=C(CN1CCCCC1)Nc1ccc(/C(=C(/CCCO)c2ccccc2)c2ccc(O)cc2)cc1 [Compound 44, (E)-N-(4-(5-hydroxy-1-(4-hydroxyphenyl)-2-phenylpent-1-en-1-yl)phenyl)-2-(piperidin-1-yl)acetamide]	12.94 % of control	3.16			
CN1CCN(Cc2ccc(/C(=C(/CCCO)c3ccccc3)c3ccc(O)cc3)cc2)CC1 [Compound 30a, (E)-4-(5-hydroxy-1-(4-((4-methylpiperazin-1-yl)methyl)phenyl)-2-phenylpent-1-en-1-yl)phenol]	2.94 % of control	3.09			
CC(C)(C)OC(=O)N1CC(c2ccc(/C(=C(/CCCO)c3ccccc3)c3ccc(O)cc3)cc2)C1 [Compound 18t, tert-butyl (E)-3-(4-(5-hydroxy-1-(4-hydroxyphenyl)-2-phenylpent-1-en-1-yl)phenyl)azetidine-1-carboxylate]	11.1 % of control	1.11	66.9	80.5	CYP inhibition (% of control) 2C19 (CYP2C19): 93 % of control; CYP inhibition (% of control) 1A2 (CYP1A2): 100 % of control; CYP inhibition (% of control) 2C9 (CYP2C9): 83 % of control; CYP inhibition (% of control) 2D6 (CYP2D6): 98 % of control
CC(C)N1CCN(c2ccc(/C(=C(/CCCO)c3ccccc3)c3ccc(OS(=O)(=O)C(F)(F)F)cc3)cc2)CC1 [Compound 28d]	1.69 % of control	1.78			
C[C@@]12CNC[C@]1(C)CN(CC(=O)Nc1ccc(/C(=C(/CCCO)c3ccccc3)c3ccc(O)cc3)cc1)C2 [Compound 46, 2-((3aR,6aS)-3a,6a-dimethylhexahydropyrrolo[3,4-c]pyrrol-2(1H)-yl)-N-(4-((E)-5-hydroxy-1-(4-hydroxyphenyl)-2-phenylpent-1-en-1-yl)phenyl)acetamide]	78.46 % of control	24.91			
CN1C[C@@H]1CCCOc1ccc(/C(=C(/CCCO)c2ccccc2)c2ccc(Br)cc2)cc1 (stereo partly shown) [Compound 13c]	10.58 % of control	3.36			
OCCC/C(=C(\c1ccc(O)cc1)c1ccc(C2CNC2)cc1)c1ccccc1 [Compound 20e]			78.1	82.1	AUCINF (in vivo): 0.34 μMh; AUCall (in vivo): 0.28 μMh; Vss (in vivo): 52.8 L/kg; t1/2 (in vivo): 4.4 h
OCCC/C(=C(\c1ccc(O)cc1)c1ccc(N2CCNCC2)cc1)c1ccccc1 [Compound 20c]	2.72 % of control	0.93	55.8	53.7	
OCCC/C(=C(\c1ccc(O)cc1)c1ccc(N2CCOCC2)cc1)c1ccccc1 [Compound 18o]	23.2 % of control	2.33			
CN1CCCC1CCOc1ccc(/C(=C(/CCCO)c2ccccc2)c2ccc(Br)cc2)cc1 (stereo not shown) [Compound 13d]			67.3	59.9	CYP inhibition (% of control) 1A2 (CYP1A2): >100 % of control; CYP inhibition (% of control) 2C9 (CYP2C9): 97 % of control; CYP inhibition (% of control) 2D6 (CYP2D6): >100 % of control; Papp at 5 h (in vitro): 0.14 ×10⁻⁶ cm/s
CN1CCN(c2ccc(/C(=C(/CCCOC(=O)C(C)(C)C)c3ccccc3)c3ccc(O)cc3)cc2)CC1 [Compound 28f]	4 % of control	0.98			
CN1CCN(c2ccc(/C(=C(/CCCO)c3ccccc3)c3ccc(OC(=O)C(C)(C)C)cc3)cc2)CC1 [Compound 28e]	4.76 % of control	1.16	56.4	59.6	
CC(C)N1CCN(c2ccc(/C(=C(/CCCO)c3ccccc3)c3ccc(OS(C)(=O)=O)cc3)cc2)CC1 [Compound 28a, (E)-4-(5-hydroxy-1-(4-(4-isopropylpiperazin-1-yl)phenyl)-2-phenylpent-1-en-1-yl)phenyl methanesulfonate]	1.14 % of control	1.20			
CC(C)(C)OC(=O)N1CCN(c2ccc(/C(=C(/CCCO)c3ccccc3)c3ccc(O)cc3)cc2)CC1 [Compound 18m]	2.97 % of control	1.01			
CN1CCN(C[Si](C)(C)c2ccc(/C(=C(/CCCO)c3ccccc3)c3ccc(O)cc3)cc2)CC1 [Compound 42a, (Z)-4-(1-(4-(dimethyl((4-methylpiperazin-1-yl)methyl)silyl)phenyl)-5-hydroxy-2-phenylpent-1-en-1-yl)phenol]	4.37 % of control	1.49			
C[Si](C)(CN1C[C@H]2CNC[C@H]2C1)c1ccc(/C(=C(/CCCO)c2ccccc2)c2ccc(O)cc2)cc1 [Compound 42e]	26.04 % of control	6.37			
